We go through 16 compounds from patent publication US20050065202A1, “Use of sulphonamide derivatives for the manufacture of a medicament for the prophylaxis and/or treatment of disorders of food ingestion” (priority 2003, published 2005).

Broadly, the melting point is the temperature, or range, at which the solid turns liquid. In general, Ki refers to a measure of affinity in units of concentration, obtained from inhibition or displacement. Broadly, the inhibition is the relative decrease from the control value, in per cent.

Where a name gives a salt, the structure may show the parent alone.

The target in series [1] is T1, 5HT6-human recombinant receptor (Homo sapiens, UniProt P50406).
T1 construct: purchased Receptor Biology; host or cells: HEK-293 cell membranes
Put plainly: Binding to serotonin receptor 5HT6 ([3H]-LSD displacement, HEK-293 cell membranes). To be noted: for inhibition at 1 µM: read-out: % Inhibition 10^−6 M. The method, then: Binding to Serotonin Receptor 5HT6
The respective part of the literature description is hereby incorporated by reference and forms part of the disclosure. […] Tests were made in triplicate.
The binding of the inventively used sulphonamide derivatives of general formula (I) was determined as described above.

T1 sequence (P50406 whole entry): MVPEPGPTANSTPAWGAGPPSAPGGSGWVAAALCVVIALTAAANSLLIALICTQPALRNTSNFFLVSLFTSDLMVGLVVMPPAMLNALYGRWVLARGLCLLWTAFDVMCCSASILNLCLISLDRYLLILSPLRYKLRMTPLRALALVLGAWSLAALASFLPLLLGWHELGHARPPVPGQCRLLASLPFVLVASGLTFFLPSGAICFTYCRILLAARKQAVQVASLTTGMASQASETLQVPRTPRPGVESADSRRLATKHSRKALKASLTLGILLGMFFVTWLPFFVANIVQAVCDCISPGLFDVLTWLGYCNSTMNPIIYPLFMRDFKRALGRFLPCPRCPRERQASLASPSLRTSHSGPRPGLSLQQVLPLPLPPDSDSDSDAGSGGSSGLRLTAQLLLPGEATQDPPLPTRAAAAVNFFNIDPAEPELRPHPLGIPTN

Regarding `CCN(CC)CCc1c[nH]c2ccc(NS(=O)(=O)c3cccc4ccccc34)cc12` (as salt: HCl) [Example 3, Hydrochloride N-[3-(2-diethylaminoethyl)-1H-indol-5-yl]naphthalene-1-sulphonamide], the melting point lay in the range of 255 to 257 °C.

For `CN1CCC(c2c[nH]c3ccc(NS(=O)(=O)c4cccc5ccccc45)cc23)CC1` (as salt: HCl) [Example 13, N-[3-(1-methylpiperidin-4-yl)-1H-indol-5-yl]naphthalene-1-sulphonamide hydrochloride], the melting point was 212 °C (dec.).

`CCN(CC)CCc1c[nH]c2ccc(NS(=O)(=O)c3sc4ccc(Cl)cc4c3C)cc12` [Example 1, N-[3-(2-diethylaminoethyl)-1H-indol-5-yl]-5-chloro-3-methylbenzo[b]thiophene-2-sulphonamide]: the melting point lay within 170 to 173 °C. Besides, in series [1], the Ki was 0.28 nM and the inhibition at 1 µM was 98.1 ± 4%.

Consider `CCN(CC)CCc1c[nH]c2ccc(NS(=O)(=O)c3cccc4ccccc34)cc12` [Example 3, Hydrochloride N-[3-(2-diethylaminoethyl)-1H-indol-5-yl]naphthalene-1-sulphonamide], for which, in series [1], the inhibition at 1 µM was found to be 96.6 ± 5.2%.

For `CCN(CC)CCc1c[nH]c2ccc(NS(=O)(=O)c3cc(Cl)cc(Cl)c3)cc12` [Example 4, N-[3-(2-diethylaminoethyl)-1H-indol-5-yl]-3,5-dichlorobenzenesulphonamide], the melting point fell in the range of 168 to 170 °C. In series [1], the inhibition at 1 µM worked out at 96.2 ± 0.6%.

Take `CCN(CC)CCc1c[nH]c2ccc(NS(=O)(=O)c3ccc(-c4ccccc4)cc3)cc12` [Example 5, N-[3-(2-diethylaminoethyl)-1H-indol-5-yl]-4-phenylbenzenesulphonamide]: the melting point fell in the range of 161 to 163 °C. For the same compound, in series [1], the inhibition at 1 µM stood at 101.2 ± 0.1%.

In turn, `CCN(CC)CCc1c[nH]c2ccc(NS(=O)(=O)c3ccc(Cl)s3)cc12` [Example 6, N-[3-(2-diethylaminoethyl)-1H-indol-5-yl]-5-chlorothiophene-2-sulphonamide] yielded a melting point of 180 to 181 °C. Further, in series [1], the Ki worked out at 8.7 nM and the inhibition at 1 µM was 97.6 ± 1.8%.

The compound `Cc1c(S(=O)(=O)Nc2ccc3[nH]cc(CCN(C)C)c3c2)sc2ccc(Cl)cc12` [Example 7, N-[3-(2-dimethylaminoethyl)-1H-indol-5-yl]-5-chloro-3-methylbenzo[b]thiophene-2-sulphonamide] registered a melting point of 226 to 227 °C. For the same compound, in series [1], the Ki is 0.13 nM and the inhibition at 1 µM was determined as 103 ± 7.9%.

The compound `CN(C)CCc1c[nH]c2ccc(NS(=O)(=O)c3cccc4ccccc34)cc12` [Example 8, N-[3-(2-dimethylaminoethyl)-1H-indol-5-yl]naphthalene-1-sulphonamide] yielded a melting point of 203 to 205 °C. Besides, in series [1], the Ki came to 0.76 nM and the inhibition at 1 µM came out at 94.5 ± 7%.

As for `CN(C)CCc1c[nH]c2ccc(NS(=O)(=O)c3c(Cl)nc4sccn34)cc12` [Example 9, N-[3-(2-dimethylamino-ethyl)-1H-indol-5-yl]-6-chloroimidazo[2,1-b]thiazol-5-sulphonamide], in series [1], the inhibition at 1 µM worked out at 96.8 ± 3.7%.

Turning to `Cc1c(S(=O)(=O)Nc2ccc3[nH]cc(C4CCN(C)CC4)c3c2)sc2ccc(Cl)cc12` [Example 11, N-[3-(1-methylpiperidin-4-yl)-1H-indol-5-yl]-5-chloro-3-methylbenzo[b]thiophene-2-sulphonamide hydrochloride], in series [1], the Ki was 0.98 nM and the inhibition at 1 µM came to 101%.

As to `CN1CCC(c2c[nH]c3ccc(NS(=O)(=O)c4cccc5ccccc45)cc23)CC1` [Example 13, N-[3-(1-methylpiperidin-4-yl)-1H-indol-5-yl]naphthalene-1-sulphonamide hydrochloride], the inhibition at 1 µM in series [1] was 98.3%.

Turning to `CN1CCC(c2c[nH]c3ccc(NS(=O)(=O)c4ccc(Cl)s4)cc23)CC1` [Example 14, N-[3-(1-methylpiperidin-4-yl)-1H-indol-5-yl]-5-chlorothiophene-2-sulphonamide], the melting point is 284 °C (dec.).

With `CN1CCC(c2c[nH]c3ccc(NS(=O)(=O)c4ccc(-c5ccccc5)cc4)cc23)CC1` [Example 15, N-[3-(1-methylpiperidin-4-yl)-1H-indol-5-yl]-4-phenylbenzenesulphonamide], the melting point fell in the range of 247 to 248 °C.

Take `CN1CCC(c2c[nH]c3ccc(NS(=O)(=O)c4cccc5cccnc45)cc23)CC1` [Example 16, N-[3-(1-methylpiperidin-4-yl)-1H-indol-5-yl]quinoline-8-sulphonamide]: the melting point is 280 °C (dec.).

Compound `CCN(CC)CCc1c[nH]c2ccc(NS(=O)(=O)c3ccc4ccccc4c3)cc12` [Example 17, N-[3-(2-diethylaminoethyl)-1H-indol-5-yl]naphthalene-2-sulphonamide] showed a melting point of 172 to 173 °C. In series [1], the inhibition at 1 µM is 102%.
